Key:
[1] = tested on: human lung cancer strain NCI-H441; test: NCI-H441 cell proliferation inhibitory activity (CellTiter-Glo, 4 days); assay type: cell-based; settings: NCI-H441 cells, 4 days, read-out: NCl-H441 IC50
Outline: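 Proliferation was scored by […] measured after the reagent was added to cultures kept at 37°C in 5% carbon dioxide.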

HRAS wild-type protein = HRAS wild-type protein (Homo sapiens, UniProt P01112); test: Binding to HRAS by surface plasmon resonance (SPR), KD and KD ratio to KRAS; settings: ratio of KD for HRAS wild-type protein to KD for KRAS
Chain of HRAS wild-type protein (P01112 whole entry): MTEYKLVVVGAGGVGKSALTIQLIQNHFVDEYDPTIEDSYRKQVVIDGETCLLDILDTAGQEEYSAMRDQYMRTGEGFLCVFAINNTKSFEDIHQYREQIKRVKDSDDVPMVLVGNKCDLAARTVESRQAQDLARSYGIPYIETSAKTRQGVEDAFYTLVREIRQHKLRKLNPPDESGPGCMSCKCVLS
Outline: (§1)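 SPR, 30°C: Avi-biotin RAS·GDP captured via Biotin CAPture (~100–300 RU); running buffer HBS pH 7.4, 1 mM DTT, 10 mM MgCl2, 0.01% Tween 20, 10 µM GDP, 4% DMSO. Single-cycle kinetics, 100 µL/min, 75 s injections; 1:1 model → KD.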

[2] = molecular target: GDP-bound NRAS wild-type protein (Homo sapiens, UniProt P01111); test: Binding to NRAS by surface plasmon resonance (SPR), KD and KD ratio to KRAS; settings: ratio of KD for GDP-bound NRAS wild-type protein to KD for KRAS
Chain of GDP-bound NRAS wild-type protein (P01111 whole entry): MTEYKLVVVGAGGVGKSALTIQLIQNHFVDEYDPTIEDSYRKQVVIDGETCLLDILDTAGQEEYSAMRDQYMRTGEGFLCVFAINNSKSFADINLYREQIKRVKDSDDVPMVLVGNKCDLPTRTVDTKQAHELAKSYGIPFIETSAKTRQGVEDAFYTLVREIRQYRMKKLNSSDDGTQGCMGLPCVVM
Outline: as §1

[3] = molecular target: GDP-bound KRAS wild-type protein (Homo sapiens, UniProt P01116); test: Binding to KRAS by surface plasmon resonance (SPR), dissociation constant KD
Chain of GDP-bound KRAS wild-type protein (P01116 1-188 isoform P01116-2): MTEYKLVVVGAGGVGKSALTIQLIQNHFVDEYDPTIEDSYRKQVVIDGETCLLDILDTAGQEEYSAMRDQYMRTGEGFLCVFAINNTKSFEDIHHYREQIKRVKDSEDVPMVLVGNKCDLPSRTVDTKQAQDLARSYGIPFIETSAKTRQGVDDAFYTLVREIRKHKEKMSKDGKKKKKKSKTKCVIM
Outline: as §1

IC50 [1] [nM] | Kd ([3]; 1:1 binding model) [nM] | Kd ([3]; Single Cycle Kinetics) [nM] | Structure (SMILES) | HRAS /KRAS (HRAS wild-type protein) | NRAS /KRAS [2]
33.1 | 0.29 | – | CCCO[C@H](C)[C@@H]1NC(=O)[C@H](CC(C)C)N(C)C(=O)C[C@@H](C(=O)N(C)CC)N(C)C(=O)[C@H](C2CCCC2)N(C)C(=O)C2(CC(C)(C)C2)NC(=O)[C@@H]2C[C@H](C)CN2C(=O)[C@H](CCc2ccc(C(F)(F)F)c(OC)c2)NC(=O)CN(C)C(=O)[C@H](Cc2ccc(C)cc2)N2CC/C=C\C[C@@H](C2=O)N(C)C(=O)CN(C)C1=O [PP2416] | B (a compound having 3 or more and less than 10 is denoted as B) | A (a compound having 10 or more and less than 20 is denoted as A)
7.5 | 0.062 | – | CCOC[C@H]1C(=O)N[C@@H]([C@@H](C)CC)C(=O)N2CCC[C@H]2C(=O)N(C)[C@H]2C/C=C\CCN(C2=O)[C@@H](Cc2ccc(C(F)(F)F)cc2)C(=O)N(C)CC(=O)N[C@@H](CCc2ccc(C(F)(F)F)c(OC)c2)C(=O)N2C[C@@H](C)C[C@H]2C(=O)N(C)C2(CCC2)C(=O)N(C)[C@@H](C2CCCC2)C(=O)N(C)[C@H](C(=O)N(C)C)CC(=O)N1C [PP2363] | B (a compound having 3 or more and less than 10 is denoted as B) | A (a compound having 10 or more and less than 20 is denoted as A)
303 | 2.6 | – | CC[C@H](C)[C@@H]1NC(=O)[C@H](COC)N(C)C(=O)C[C@@H](C(=O)N(C)C)N(C)C(=O)[C@H](C2CCCC2)N(C)C(=O)C2(CC(C)(C)C2)NC(=O)[C@@H]2C[C@@H](OC(C)C)CN2C(=O)[C@H](CCc2ccc(Cl)c(Cl)c2)NC(=O)CN(C)C(=O)[C@H](CC2CCCCC2)N2CC/C=C\C[C@@H](C2=O)N(C)C(=O)CN(C2CC2)C1=O [PP2513] | A (a compound having 10 or more and less than 20 is denoted as A) | A (a compound having 10 or more and less than 20 is denoted as A)
3.3 | 0.79 | – | CCC[C@H]1C(=O)N[C@@H]([C@@H](C)CC)C(=O)N(C2CC2)CC(=O)N(C)[C@H]2C/C=C\CCN(C2=O)[C@@H](CC2CCCCC2)C(=O)N(C)CC(=O)N[C@@H](CCc2ccc(C(F)(F)F)c(OC)c2)C(=O)N2C[C@@H](C)C[C@H]2C(=O)N(C)C2(CCC2)C(=O)N(C)[C@@H](C2CCCC2)C(=O)N(C)[C@H](C(=O)N(C)C)CC(=O)N1C [PP2372] | B (a compound having 3 or more and less than 10 is denoted as B) | A (a compound having 10 or more and less than 20 is denoted as A)
24.7 | – | 0.94 | CCCN1CC(=O)N(C)[C@H]2C/C=C\CCN(C2=O)[C@@H](Cc2ccc(C(F)F)cc2)C(=O)N(C)CC(=O)N[C@@H](CCc2cc(F)c(C(F)(F)F)c(F)c2)C(=O)N2C[C@H](OC(C)C)C[C@H]2C(=O)N(C)C2(CCC2)C(=O)N(C)[C@@H](C(CC)CC)C(=O)N(C)[C@H](C(=O)N(C)C)CC(=O)N(C)[C@@H](COCC)C(=O)N[C@@H](C2CCCC2)C1=O [PP3498] | A (a compound having 10 or more and less than 20 is denoted as A) | A (a compound having 10 or more and less than 20 is denoted as A)
91.9 | – | 1.2 | CCC[C@H]1C(=O)N[C@@H]([C@@H](C)CC)C(=O)N2CCC[C@H]2C(=O)N(C)[C@H]2C/C(F)=C\CCN(C2=O)[C@@H](Cc2ccc(C)cc2)C(=O)N(C)CC(=O)N[C@@H](CCc2cc(F)c(C(F)(F)F)c(F)c2)C(=O)N2C[C@H](OCC)C[C@H]2C(=O)NC2(CCC2)C(=O)N(C)[C@@H](C2CCCC2)C(=O)N(C)[C@H](C(=O)N(C)C)CC(=O)N1C [PP3520] | B (a compound having 3 or more and less than 10 is denoted as B) | B (a compound having 3 or more and less than 10 is denoted as B)

— patent EP4603105A1, “PHARMACEUTICAL COMPOSITION CONTAINING CYCLIC COMPOUND HAVING SELECTIVE KRAS INHIBITORY EFFECT AGAINST HRAS AND NRAS” (CHUGAI SEIYAKU KABUSHIKI KAISHA, priority 2022, dated 2024)
